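Where inhibition never reached the appropriate level, the endpoint shown equals the highest concentration tested. Otherwise, values were interpolated linearly from a five-concentration, 48-hour dose response in 96-well plates. At the GI50, growth is halved.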 Calls of active or inactive are those of the source. Rule as the data show it: active = GI50 up to about 1.1 µM and inactive = higher.
Columns and labels:
Test in all cases: inhibition of tumour cell growth, NCI panel, 48 h
NCI-H226 = system: NCI-H226
KM12 = system: KM12
786-0 = system: 786-0
UO-31 = system: UO-31
SF-268 = system: SF-268
SK-MEL-28 = system: SK-MEL-28
SN12C = system: SN12C
T47D = system: T47D
OVCAR-3 = system: OVCAR-3
HOP-92 = system: HOP-92
MDA-MB-435 = system: MDA-MB-435
ACHN = system: ACHN
SF-539 = system: SF-539
U-251 = system: U-251
MCF7 = system: MCF7
EKVX = system: EKVX
HT-29 = system: HT-29
K562 = system: K562
HL-60 = system: HL-60
COLO 205 = system: COLO 205
M14 = system: M14
HCT-15 = system: HCT-15
SK-OV-3 = system: SK-OV-3
SF-295 = system: SF-295
PC-3 = system: PC-3
OVCAR-4 = system: OVCAR-4
A549 = system: A549
DU-145 = system: DU-145
BT-549 = system: BT-549
TK-10 = system: TK-10
OVCAR-5 = system: OVCAR-5
IGROV-1 = system: IGROV-1
SK-MEL-2 = system: SK-MEL-2
LOX IMVI = system: LOX IMVI
HCT-116 = system: HCT-116
NCI/ADR-RES = system: NCI/ADR-RES
CAKI-1 = system: CAKI-1
MDA-MB-231 = system: MDA-MB-231
SK-MEL-5 = system: SK-MEL-5
SNB-75 = system: SNB-75
OVCAR-8 = system: OVCAR-8
CCRF-CEM = system: CCRF-CEM
NCI-H460 = system: NCI-H460
HCC 2998 = system: HCC 2998
SW-620 = system: SW-620
NCI-H23 = system: NCI-H23
RPMI-8226 = system: RPMI-8226
SNB-19 = system: SNB-19
Hs-578T = system: Hs-578T
MOLT-4 = system: MOLT-4
A498 = system: A498
HOP-62 = system: HOP-62
SR = system: SR
MDA-N = system: MDA-N
UACC-257 = system: UACC-257
UACC-62 = system: UACC-62
Malme-3M = system: Malme-3M
NCI-H522 = system: NCI-H522
RXF 393 = system: RXF 393

Structure (SMILES): C/C(=N\NC(=S)Nc1ccc(Cl)cc1)c1nc2cccnc2[nH]1
- GI50 (NCI-H226): 1.77 µM (inactive)
- GI50 (KM12): 1.23 µM (inactive)
- GI50 (786-0): 2.17 µM (inactive)
- GI50 (UO-31): 0.713 µM (active)
- GI50 (SF-268): 0.438 µM (active)
- GI50 (SK-MEL-28): 1.51 µM (inactive)
- GI50 (SN12C): 2.81 µM (inactive)
- GI50 (T47D): 3.37 µM (inactive)
- GI50 (OVCAR-3): 0.352 µM (active)
- GI50 (HOP-92): 1.27 µM (inactive)
- GI50 (MDA-MB-435): 3.44 µM (inactive)
- GI50 (ACHN): 0.822 µM (active)
- GI50 (SF-539): 0.938 µM (active)
- GI50 (U-251): 0.773 µM (active)
- GI50 (MCF7): 2.69 µM (inactive)
- GI50 (EKVX): 0.608 µM (active)
- GI50 (HT-29): 2.56 µM (inactive)
- GI50 (K562): 3.33 µM (inactive)
- GI50 (HL-60): 0.818 µM (active)
- GI50 (COLO 205): 4.07 µM (inactive)
- GI50 (M14): 1.48 µM (inactive)
- GI50 (HCT-15): 2.39 µM
- GI50 (SK-OV-3): 4.31 µM (inactive)
- GI50 (SF-295): 2.15 µM (inactive)
- GI50 (PC-3): 1.39 µM (inactive)
- GI50 (OVCAR-4): 5.64 µM (inactive)
- GI50 (A549): 2.38 µM (inactive)
- GI50 (DU-145): 1.97 µM (inactive)
- GI50 (BT-549): 1.76 µM (inactive)
- GI50 (TK-10): 0.309 µM (active)
- GI50 (OVCAR-5): 2.29 µM (inactive)
- GI50 (IGROV-1): 3.08 µM (inactive)
- GI50 (SK-MEL-2): 10.5 µM (inactive)
- GI50 (LOX IMVI): 1.23 µM (inactive)
- GI50 (HCT-116): 1.53 µM (inactive)
- GI50 (NCI/ADR-RES): 2.65 µM (inactive)
- GI50 (CAKI-1): 1.53 µM (inactive)
- GI50 (MDA-MB-231): 6.04 µM (inactive)
- GI50 (SK-MEL-5): 1.67 µM (inactive)
- GI50 (SNB-75): 4.91 µM (inactive)
- GI50 (OVCAR-8): 1.45 µM (inactive)
- GI50 (CCRF-CEM): 0.492 µM (active)
- GI50 (NCI-H460): 0.665 µM (active)
- GI50 (HCC 2998): 1.3 µM (inactive)
- GI50 (SW-620): 4.93 µM (inactive)
- GI50 (NCI-H23): 1.89 µM (inactive)
- GI50 (RPMI-8226): 3.27 µM (inactive)
- GI50 (SNB-19): 2.08 µM (inactive)
- GI50 (Hs-578T): 15.1 µM (inactive)
- GI50 (MOLT-4): 0.687 µM (active)
- GI50 (A498): 6.21 µM (inactive)
- GI50 (HOP-62): 1.52 µM (inactive)
- GI50 (SR): 0.92 µM (active)
- GI50 (MDA-N): 5.13 µM (inactive)
- GI50 (UACC-257): 2.28 µM (inactive)
- GI50 (UACC-62): 1.87 µM (inactive)
- GI50 (Malme-3M): 3.35 µM (inactive)
- GI50 (NCI-H522): 6.89 µM (inactive)

Structure (SMILES): CCOC(=O)CC(=O)C(=O)NN=C1NCCN1
- GI50 (NCI-H226): > 100 µM (inactive)
- GI50 (KM12): > 100 µM (inactive)
- GI50 (786-0): > 100 µM (inactive)
- GI50 (UO-31): > 100 µM (inactive)
- GI50 (SF-268): > 100 µM (inactive)
- GI50 (SK-MEL-28): > 100 µM (inactive)
- GI50 (SN12C): > 100 µM (inactive)
- GI50 (T47D): > 100 µM (inactive)
- GI50 (OVCAR-3): > 100 µM (inactive)
- GI50 (RXF 393): > 100 µM (inactive)
- GI50 (HOP-92): > 100 µM (inactive)
- GI50 (MDA-MB-435): > 100 µM (inactive)
- GI50 (ACHN): > 100 µM (inactive)
- GI50 (SF-539): > 100 µM (inactive)
- GI50 (U-251): > 100 µM (inactive)
- GI50 (MCF7): > 100 µM (inactive)
- GI50 (EKVX): > 100 µM (inactive)
- GI50 (HT-29): > 100 µM (inactive)
- GI50 (K562): > 100 µM (inactive)
- GI50 (HL-60): > 100 µM (inactive)
- GI50 (COLO 205): > 100 µM (inactive)
- GI50 (M14): > 100 µM (inactive)
- GI50 (HCT-15): > 100 µM
- GI50 (SK-OV-3): > 100 µM (inactive)
- GI50 (SF-295): > 100 µM (inactive)
- GI50 (PC-3): > 100 µM (inactive)
- GI50 (OVCAR-4): > 100 µM (inactive)
- GI50 (A549): > 100 µM (inactive)
- GI50 (DU-145): > 100 µM (inactive)
- GI50 (BT-549): > 100 µM (inactive)
- GI50 (TK-10): > 100 µM (inactive)
- GI50 (OVCAR-5): > 100 µM (inactive)
- GI50 (IGROV-1): > 100 µM (inactive)
- GI50 (SK-MEL-2): > 100 µM (inactive)
- GI50 (LOX IMVI): > 100 µM (inactive)
- GI50 (HCT-116): > 100 µM (inactive)
- GI50 (NCI/ADR-RES): > 100 µM (inactive)
- GI50 (MDA-MB-231): > 100 µM (inactive)
- GI50 (SK-MEL-5): > 100 µM (inactive)
- GI50 (SNB-75): > 100 µM (inactive)
- GI50 (OVCAR-8): > 100 µM (inactive)
- GI50 (CCRF-CEM): > 100 µM (inactive)
- GI50 (NCI-H460): > 100 µM (inactive)
- GI50 (HCC 2998): > 100 µM (inactive)
- GI50 (SW-620): > 100 µM (inactive)
- GI50 (NCI-H23): > 100 µM (inactive)
- GI50 (RPMI-8226): > 100 µM (inactive)
- GI50 (SNB-19): > 100 µM (inactive)
- GI50 (Hs-578T): > 100 µM (inactive)
- GI50 (MOLT-4): > 100 µM (inactive)
- GI50 (HOP-62): > 100 µM (inactive)
- GI50 (SR): > 100 µM (inactive)
- GI50 (MDA-N): > 100 µM (inactive)
- GI50 (UACC-257): > 100 µM (inactive)
- GI50 (UACC-62): > 100 µM (inactive)
- GI50 (Malme-3M): > 100 µM (inactive)
- GI50 (NCI-H522): > 100 µM (inactive)
